One experiment has as its target T1, PPARγ (Homo sapiens, UniProt P37231).
T1 construct: expressed in transfected cells; host or cells: CHO-K1
T1 sequence (P37231 1-477 isoform P37231-2): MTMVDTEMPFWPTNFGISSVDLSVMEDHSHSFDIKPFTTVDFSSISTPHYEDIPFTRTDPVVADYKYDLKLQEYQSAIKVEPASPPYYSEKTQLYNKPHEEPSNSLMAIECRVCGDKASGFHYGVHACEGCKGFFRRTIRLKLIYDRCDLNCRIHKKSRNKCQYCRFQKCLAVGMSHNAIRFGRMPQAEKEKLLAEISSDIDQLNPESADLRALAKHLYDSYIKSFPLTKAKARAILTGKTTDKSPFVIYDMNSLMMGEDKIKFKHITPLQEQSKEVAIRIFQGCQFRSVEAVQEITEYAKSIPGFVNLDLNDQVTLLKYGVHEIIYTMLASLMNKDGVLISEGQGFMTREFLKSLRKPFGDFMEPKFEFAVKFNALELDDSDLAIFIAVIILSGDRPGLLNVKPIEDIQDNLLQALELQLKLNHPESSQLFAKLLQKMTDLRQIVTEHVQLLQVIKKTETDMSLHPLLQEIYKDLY
T1 sequence (P19793 1-462 partner): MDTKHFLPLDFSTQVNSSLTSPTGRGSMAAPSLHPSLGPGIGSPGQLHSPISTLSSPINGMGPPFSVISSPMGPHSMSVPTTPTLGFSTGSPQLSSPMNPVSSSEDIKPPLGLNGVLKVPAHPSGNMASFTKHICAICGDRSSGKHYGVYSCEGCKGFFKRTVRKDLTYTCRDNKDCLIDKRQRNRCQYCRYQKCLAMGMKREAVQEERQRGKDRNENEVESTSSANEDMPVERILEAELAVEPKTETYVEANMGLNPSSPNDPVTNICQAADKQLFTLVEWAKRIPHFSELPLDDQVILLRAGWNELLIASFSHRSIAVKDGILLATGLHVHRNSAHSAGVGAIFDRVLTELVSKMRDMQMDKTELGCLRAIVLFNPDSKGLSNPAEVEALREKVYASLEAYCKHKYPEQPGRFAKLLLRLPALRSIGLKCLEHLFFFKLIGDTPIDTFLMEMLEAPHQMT
Kind of experiment: Evaluation of PPARγ activating action (luciferase reporter in PPARγ:RXRα:4ERPP/CHO-K1 cells). Type of experiment: cell-based. The note with it: CHO-K1, 24 h; test compound 10^−6 M; luciferase activity relative to control compound X (1 μM) = 100%, non-administration group = 0%; read-out: PPARγ activating action (activation % (10^−6 M)). The procedure:
PPARγ:RXRα:4ERPP/CHO-K1 cells obtained in the following Reference Example 5 were cultured in F12 medium [manufactured by INVITROGEN, USA] containing 10% fetal bovine serum [manufactured by MOREGATE, Australia], seeded in a 96-well half area white plate [manufactured by Corning Coster Corporation, USA] at the density of 5×10^3 cells/well and cultured in a CO2 gas incubator at 37° C. overnight.
Then the medium was removed from the 96-well half area white plate, 45 μl of Ham's F12 medium containing 0.1% fatty acid-free bovine serum albumin (BSA) and 5 μl of test compound were added, and the cells were cultured in a CO2 gas incubator at 37° C. for 1 day. The medium was removed and 20 μl of PicaGene 7.5 [manufactured by TOYO INK MFG. CO., LTD.,.Japan] diluted 2-fold with HBSS (HANKS' BALANCED SALT SOLUTION) [manufactured by BIO WHITTAKER, USA] was added. After stirring, the luciferase activity was determined using 1420 ARVO Multilabel Counter [manufactured by PerkinElmer, USA].
The percent (%) was calculated from the luciferase activity of each test compound when the luciferase activity of the control compound (compound X: 5-[3-(4-{[2-(2-furyl)-5-methyl-1,3-oxazol-4-yl]methoxy}-3-methoxyphenyl)propyl]-1,3-oxazolidine-2,4-dione) (1 μM) was 100% and that of the test compound non-administration group was 0%.
A CHO-K1 cell cultured in a 150 cm^2 cell culture flask [manufactured by Corning Costar Corporation, USA] containing Ham's F12 medium [manufactured by INVITROGEN, USA] supplemented with 10% fetal bovine serum [manufactured by INVITROGEN, USA] was scraped by treating with 0.5 g/L trypsin-0.2 g/L EDTA (ethylenediaminetetraacetic acid) [manufactured by Life Technologies, Inc., USA], and then the cell was washed with PBS (Phosphate-buffered saline) [manufactured by INVITROGEN, USA], centrifuged (1000 rpm, 5 minutes) and suspended in PBS. Subsequently, DNA was introduced into the cell under the conditions shown below using GENE PULSER [manufactured by Bio-Rad Laboratories, USA].
Namely, to a cuvette having a 0.4 cm gap were added 8×10^6 cells and 10 μg of plasmid pVgRXR2-hPPARγ obtained in Reference Example 4 and 10 μg of reporter plasmid pGL3-4ERPP-TK neo obtained in Reference Example 3, which was subjected to electroporation at the voltage of 0.25 kV under the capacitance of 960 μF. Subsequently, the cell was transferred into a F12 medium containing 10% fetal bovine serum and cultured for 24 hours, and then the cell was scraped again and centrifuged, and then suspended in Ham's F12 medium containing 10% fetal bovine serum supplemented with 500 μg/ml of Geneticin [manufactured by INVITROGEN, USA] and 250 μg/ml of Zeocin [manufactured by INVITROGEN, USA]. The obtained suspension was diluted to the density of 10^4 cells/ml and inoculated in a 96-well plate [manufactured by Corning Costar Corporation, USA], which was cultured in a CO2 gas incubator at 37° C., whereby obtaining a Geneticin- and Zeocin-resistant transformant.
Subsequently, after the transformant cell line thus obtained was cultured in a 24-well plate [manufactured by Corning Costar Corporation, USA], a cell line in which the luciferase was expressed and induced, i.e., PPARγ:RXRα:4ERPP/CHO-K1 cell was selected by the addition of 10 μM pioglitazone hydrochloride.
On the technique in general: In a reporter assay the amount or activity of a reporter protein is the signal.

Another experiment deals with T2, human AT1 receptor (Homo sapiens, UniProt P30556).
T2 construct: expressed in transfected cells; host or cells: CHO-K1
T2 sequence (P30556 1-359): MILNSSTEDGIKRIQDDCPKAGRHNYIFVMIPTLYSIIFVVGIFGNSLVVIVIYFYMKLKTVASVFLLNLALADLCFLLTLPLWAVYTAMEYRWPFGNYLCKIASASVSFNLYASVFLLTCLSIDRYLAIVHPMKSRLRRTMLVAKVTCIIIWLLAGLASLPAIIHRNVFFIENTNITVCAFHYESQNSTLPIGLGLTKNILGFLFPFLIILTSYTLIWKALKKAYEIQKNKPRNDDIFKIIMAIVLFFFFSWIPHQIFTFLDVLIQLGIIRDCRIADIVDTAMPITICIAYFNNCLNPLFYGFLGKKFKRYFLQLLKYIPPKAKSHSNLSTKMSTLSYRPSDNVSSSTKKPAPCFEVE
Kind of experiment: Binding assay using human AT1 receptor-expressing CHO-K1 cell membrane fraction ([125I]-angiotensin II). Conditions: 22.5 pM [125I]-angiotensin II, 9 μg AT1 membrane, 1 hr room temperature; read-out: AT1 receptor binding inhibitory action (IC50 (nM)). The procedure:
The membrane fraction for human AT1 receptor binding assay was prepared as follows. CHO-K1 cell capable of stable expression of human AT1 receptor was cultured, recovered, suspended in homogenize buffer (10 mM NaHCO3 (pH 7.4), 5 mM EDTA, 1×Complete EDTA free) [manufactured by Roche, Switzerland], and homogenized. The homogenate was centrifuged at low-speed (900×g, 10 min, 4° C.), and the supernatant was recovered and ultracentrifuged (90,000×g, 1 hr, 4° C.). The supernatant was discarded, and the pellets were resuspended in resuspension buffer (50 mM Tris (pH 7.4), 1 mM EDTA, 1×Complete EDTA free).
The binding assay was performed in the presence of 22.5 pM [^125I]-angiotensin II [manufactured by PerkinElmer, USA], 9 μg of AT1 membrane and test compound in 100 μL (total reaction volume) of reaction buffer (50 mM Tris (pH 7.4), 10 mM MgCl2 supplemented or not supplemented with 0.3 mg/mL fatty acid-free bovine serum albumin [manufactured by Wako Pure Chemical Industries, Ltd., Japan]). The reaction mixture was incubated in 96 well polypropylene plate for 1 hr at room temperature, and the reaction was quenched by rapid filtration (96 well cell harvester) through a GF/C filter treated with wash buffer (50 mM Tris (pH 7.4)). Subsequently, the filter was washed 5 times with 0.3 mL of ice-cooled wash buffer. The filter was air-dried, and [^125I]-angiotensin II binding radioactivity was assayed with Top Count scintillation counter. Total binding was measured in the presence of 1% DMSO and nonspecific binding was measured in the presence of 1 μM CV-11974. The binding data was analyzed by GraphPad Prism program and the IC50 value (compound concentration showing 50% of the maximum value of inhibition percent) of the test compound was calculated.

Take `CCCCc1nc(C)n(CC(=O)C(C)(C)C)c(=O)c1Cc1ccc(-c2ccccc2-c2noc(=O)[nH]2)cc1` [Example 37, 6-butyl-3-(3,3-dimethyl-2-oxobutyl)-2-methyl-5-{[2′-(5-oxo-4,5-dihydro-1,2,4-oxadiazol-3-yl)biphenyl-4-yl]methyl}pyrimidin-4(3H)-one]: on PPARγ, the activation at 1 µM was determined as 29.8%. The IC50 (usually the concentration that inhibits the measured activity by half) on human AT1 receptor was found to be 1.3 nM.
For `CCCCc1nc(C(C)C)n(-c2ccc3c(c2)CCO3)c(=O)c1Cc1ccc(-c2ccccc2-c2noc(=O)[nH]2)cc1` [Example 118, 6-butyl-3-(2,3-dihydro-1-benzofuran-5-yl)-2-isopropyl-5-{[2′-(5-oxo-4,5-dihydro-1,2,4-oxadiazol-3-yl)biphenyl-4-yl]methyl}pyrimidin-4(3H)-one] the same measures were 50.2% and 1.8 nM.
For `CCCc1nc(CC)n(-c2ccc(OC(C)C)nc2)c(=O)c1Cc1ccc(-c2ccccc2-c2noc(=O)[nH]2)cc1` [Example 373, 2-ethyl-3-(6-isopropoxypyridin-3-yl)-5-{[2′-(5-oxo-4,5-dihydro-1,2,4-oxadiazol-3-yl)biphenyl-4-yl]methyl}-6-propylpyrimidin-4(3H)-one], in that order: 48.4% and 2.4 nM.
For `CCCc1nc(C)n(-c2cc(F)c3c(c2)CC(C)(C)O3)c(=O)c1Cc1ccc(-c2ccccc2-c2noc(=O)[nH]2)cc1` [Example 275, 3-(7-fluoro-2,2-dimethyl-2,3-dihydro-1-benzofuran-5-yl)-2-methyl-5-{[2′-(5-oxo-4,5-dihydro-1,2,4-oxadiazol-3-yl)biphenyl-4-yl]methyl}-6-propylpyrimidin-4(3H)-one], in that order: 17% and 1.8 nM.
For the compound `CCCc1nc(CC)c(Oc2cc(F)ccc2F)c(=O)n1Cc1ccc(-c2ccccc2-c2noc(=O)[nH]2)cc1` [Example 484, 5-(2,5-difluorophenoxy)-6-ethyl-3-{[2′-(5-oxo-4,5-dihydro-1,2,4-oxadiazol-3-yl)biphenyl-4-yl]methyl}-2-propylpyrimidin-4(3H)-one], the activation at 1 µM at PPARγ is 19.4%. For the same compound, the IC50 at human AT1 receptor turned out to be 2.3 nM.
For `CCCCc1nc(C)n(C(C)c2ccccc2)c(=O)c1Cc1ccc(-c2ccccc2-c2noc(=O)[nH]2)cc1` (stereo not drawn) [Example 67, 6-butyl-2-methyl-5-{[2′-(5-oxo-4,5-dihydro-1,2,4-oxadiazol-3-yl)biphenyl-4-yl]methyl}-3-(1-phenylethyl)pyrimidin-4(3H)-one] the same measures were 49.4% and 2 nM.
For `CCCc1nc(CC)c(-c2ccc(OCC)nc2)c(=O)n1Cc1ccc(-c2ccccc2-c2noc(O)n2)cc1` [Example 507, 5-(6-ethoxypyridin-3-yl)-6-ethyl-3-{[2′-(5-oxo-4,5-dihydro-1,2,4-oxadiazol-3-yl)biphenyl-4-yl]methyl}-2-propylpyrimidin-4(3H)-one] the same measures were 32.4% and 2.2 nM.
For `CCCc1nc(C)n(-c2ccc3c(c2)CC(C)O3)c(=O)c1Cc1ccc(-c2ccccc2-c2noc(=O)[nH]2)cc1` (stereo not drawn) [Example 235, 2-methyl-3-(2-methyl-2,3-dihydro-1-benzofuran-5-yl)-5-{[2′-(5-oxo-4,5-dihydro-1,2,4-oxadiazol-3-yl)biphenyl-4-yl]methyl}-6-propylpyrimidin-4(3H)-one], in that order: 27.6% and 1.5 nM.
For the compound `CCCCc1nc(C)n(Cc2ccc(OC)nc2)c(=O)c1Cc1ccc(-c2ccccc2-c2noc(=O)[nH]2)cc1` [Example 71, 6-butyl-3-[(6-methoxypyridin-3-yl)methyl]-2-methyl-5-{[2′-(5-oxo-4,5-dihydro-1,2,4-oxadiazol-3-yl)biphenyl-4-yl]methyl}pyrimidin-4(3H)-one], at PPARγ, the activation at 1 µM is 46.3%. Moreover, the IC50 at human AT1 receptor amounted to 1.8 nM.
For `CCCc1nc(CC)c(-c2ccc(OC)cc2)c(=O)n1Cc1ccc(-c2ccccc2-c2noc(O)n2)cc1` [Example 456, 6-ethyl-5-(4-methoxyphenyl)-3-{[2′-(5-oxo-4,5-dihydro-1,2,4-oxadiazol-3-yl)biphenyl-4-yl]methyl}-2-propylpyrimidin-4(3H)-one], in that order: 30% and 1.8 nM.
Consider `CCCc1nc(C(F)F)n(-c2ccc(OC)cc2)c(=O)c1Cc1ccc(-c2ccccc2-c2noc(=O)[nH]2)cc1` [Example 410], for which the IC50 on human AT1 receptor was 2.1 nM.
